# Data reported in patent publication US7435837B2, “Dihydrobenzofuranyl alkanamine derivatives and methods for using same” (Wyeth, priority 2003, dated 2008).
# How the values were obtained:
# [1] = target: T1, human 5-hydroxytryptamine-2C (h5-HT2C) receptor (Homo sapiens, UniProt P28335); test: [125I]DOI binding to membranes of CHO cells expressing the human 5-HT2C receptor; details: [125I]DOI radioligand, CHO cell membranes, room temperature 60 min; read-out: 5-HT2C Affinity Ki
# T1 construct: expressed in transfected cells; host or cells: CHO (Chinese Hamster Ovary) cells; membranes
# T1 sequence (P28335 33-458): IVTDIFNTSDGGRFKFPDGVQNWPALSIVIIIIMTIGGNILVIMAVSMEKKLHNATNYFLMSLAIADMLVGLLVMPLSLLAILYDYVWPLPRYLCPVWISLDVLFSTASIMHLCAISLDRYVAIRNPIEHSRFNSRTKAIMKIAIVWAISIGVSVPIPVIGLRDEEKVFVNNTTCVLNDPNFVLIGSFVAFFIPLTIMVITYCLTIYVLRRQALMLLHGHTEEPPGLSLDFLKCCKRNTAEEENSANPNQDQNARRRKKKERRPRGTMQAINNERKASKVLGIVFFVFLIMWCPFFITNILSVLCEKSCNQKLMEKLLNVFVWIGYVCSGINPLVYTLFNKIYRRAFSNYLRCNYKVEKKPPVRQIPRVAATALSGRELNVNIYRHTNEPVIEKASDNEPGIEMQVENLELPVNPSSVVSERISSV
# [2] = target: T2, human 5-HT2C receptor (Homo sapiens, UniProt P28335); test: 5-HT2C receptor-stimulated calcium mobilization (FLIPR) in CHO cells; format: cell-based; details: for Emax: CHO, percentage of the response observed with a maximally effective concentration of 5-HT, read-out: 5-HT2C Function Emax (%); for EC50: calcium mobilization, CHO cells stably expressing human 5-HT2C, read-out: 5-HT2C Function EC50;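 on all read-outs here: Fluo-3-AM fluorescence read on FLIPR every 1 s, agonist added after 10 baseline reads, response taken as peak minus lowest raw fluorescence count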
# T2 sequence (P28335 33-458): T1 sequence (P28335 33-458)
smiles,measurement,setting,value
"COc1ccc(C)c(-c2cc(F)cc3c2OC(CN)C3)c1 (racemic) [Example 224, (±)-{[5-fluoro-7-(5-methoxy-2-methylphenyl)-2,3-dihydro-1-benzofuran-2-yl]methyl}amine]",Ki,[1],18 nM
same,Emax,[2],70%
same,EC50,[2],455 nM
"COc1ccc(C)cc1-c1cc(F)cc2c1OC(CN)C2 (racemic) [Example 225, (±)-{[5-fluoro-7-(2-methoxy-5-methylphenyl)-2,3-dihydro-1-benzofuran-2-yl]methyl}amine]",Ki,[1],1.2 nM
same,Emax,[2],90%
same,EC50,[2],3 nM
"NCC1Cc2cc(F)cc(-c3c(F)cccc3F)c2O1 (racemic) [Example 226, (±)-{[7-(2,6-difluorophenyl)-5-fluoro-2,3-dihydro-1-benzofuran-2-yl]methyl}amine]",Ki,[1],1.3 nM
same,Emax,[2],90%
same,EC50,[2],30 nM
"Cc1cccc(C)c1-c1cc(F)cc2c1OC(CN)C2 (racemic) [Example 227, (±)-{[7-(2,6-dimethylphenyl)-5-fluoro-2,3-dihydro-1-benzofuran-2-yl]methyl}amine]",Ki,[1],1.5 nM
same,Emax,[2],95%
same,EC50,[2],3 nM
"NCC1Cc2cc(F)cc(-c3c(Cl)cccc3Cl)c2O1 (racemic) [Example 230, (±)-{[7-(2,6-dichlorophenyl)-5-fluoro-2,3-dihydro-1-benzofuran-2-yl]methyl}amine]",Ki,[1],0.6 nM
same,Emax,[2],90%
same,EC50,[2],48 nM
"CN(C)CC1Cc2cc(F)cc(-c3c(Cl)cccc3Cl)c2O1 (racemic) [Example 237, (±)-{[7-(2,6-dichlorophenyl)-5-fluoro-2,3-dihydro-1-benzofuran-2-yl]methyl}dimethylamine]",Ki,[1],0.57 nM
same,Emax,[2],80%
same,EC50,[2],3 nM
"NCC1Cc2cc(Cl)cc(-c3ccccc3F)c2O1 (racemic) [Example 241, (±)-{[5-chloro-7-(2-fluorophenyl)-2,3-dihydro-1-benzofuran-2-yl]methyl}amine]",Ki,[1],0.3 nM
same,Emax,[2],90%
same,EC50,[2],29 nM
"COc1ccccc1-c1cc(Cl)cc2c1OC(CN)C2 (racemic) [Example 242, (±)-{[5-chloro-7-(2-methoxyphenyl)-2,3-dihydro-1-benzofuran-2-yl]methyl}amine]",Ki,[1],3 nM
same,Emax,[2],90%
same,EC50,[2],48 nM
"NCC1Cc2cc(Cl)cc(-c3ccoc3)c2O1 (racemic) [Example 243, (±)-{[5-chloro-7-(3-furyl)-2,3-dihydro-1-benzofuran-2-yl]methyl}amine]",Ki,[1],0.25 nM
same,Emax,[2],90%
same,EC50,[2],50 nM
"NCC1Cc2cc(Cl)cc(-c3cccc(F)c3F)c2O1 (racemic) [Example 244, (±)-{[5-chloro-7-(2,3-difluorophenyl)-2,3-dihydro-1-benzofuran-2-yl]methyl}amine]",Ki,[1],0.74 nM
same,Emax,[2],90%
same,EC50,[2],52 nM
"NCC1Cc2cc(Cl)cc(-c3cccc(Cl)c3Cl)c2O1 (racemic) [Example 247, (±)-{[5-chloro-7-(2,3-dichlorophenyl)-2,3-dihydro-1-benzofuran-2-yl]methyl}amine]",Ki,[1],15 nM
same,Emax,[2],90%
same,EC50,[2],164 nM
"Cc1cccc(-c2cc(Cl)cc3c2OC(CN)C3)c1C (racemic) [Example 248, (±)-{[5-chloro-7-(2,3-dimethylphenyl)-2,3-dihydro-1-benzofuran-2-yl]methyl}amine]",Ki,[1],9 nM
same,Emax,[2],80%
same,EC50,[2],225 nM
"COc1cccc(-c2cc(Cl)cc3c2OC(CN)C3)c1OC (racemic) [Example 249, (±)-{[5-chloro-7-(2,3-dimethoxyphenyl)-2,3-dihydro 1-benzofuran-2-yl]methyl}amine]",Ki,[1],4 nM
same,Emax,[2],90%
same,EC50,[2],21 nM
"NCC1Cc2cc(Cl)cc(-c3ccc(F)cc3F)c2O1 (racemic) [Example 250, (±)-{[5-chloro-7-(2,4-difluorophenyl)-2,3-dihydro-1-benzofuran-2-yl]methyl}amine]",Ki,[1],2.5 nM
same,Emax,[2],90%
same,EC50,[2],72 nM
"NCC1Cc2cc(Cl)cc(-c3ccc(Cl)cc3Cl)c2O1 (racemic) [Example 251, (±)-{[5-chloro-7-(2,4-dichlorophenyl)-2,3-dihydro-1-benzofuran-2-yl]methyl}amine]",Ki,[1],0.38 nM
same,Emax,[2],90%
same,EC50,[2],8 nM
"COc1ccc(-c2cc(Cl)cc3c2OC(CN)C3)c(OC)c1 (racemic) [Example 254, (±)-{[5-chloro-7-(2,4-dimethoxyphenyl)-2,3-dihydro-1-benzofuran-2-yl]methyl}amine]",Ki,[1],0.89 nM
same,Emax,[2],90%
same,EC50,[2],11 nM
"NCC1Cc2cc(Cl)cc(-c3cc(F)ccc3F)c2O1 (racemic) [Example 255, (±)-{[5-chloro-7-(2,5-difluorophenyl)-2,3-dihydro-1-benzofuran-2-yl]methyl}amine]",Ki,[1],5 nM
same,Emax,[2],90%
same,EC50,[2],79 nM
"NCC1Cc2cc(Cl)cc(-c3cc(Cl)ccc3Cl)c2O1 (racemic) [Example 256, (±)-{[5-chloro-7-(2,5-dichlorophenyl)-2,3-dihydro-1-benzofuran-2-yl]methyl}amine]",Ki,[1],0.74 nM
same,Emax,[2],100%
same,EC50,[2],4 nM
"COc1ccc(Cl)cc1-c1cc(Cl)cc2c1OC(CN)C2 (racemic) [Example 257, (±)-{[5-chloro-7-(5-chloro-2-methoxyphenyl)-2,3-dihydro-1-benzofuran-2-yl]methyl}amine]",Ki,[1],28 nM
same,Emax,[2],80%
same,EC50,[2],194 nM
"NCC1Cc2cc(Cl)cc(-c3ccc(F)c(F)c3)c2O1 (racemic) [Example 258, (±)-{[5-chloro-7-(3,4-difluorophenyl)-2,3-dihydro-1-benzofuran-2-yl]methyl}amine]",Ki,[1],42 nM
same,Emax,[2],80%
same,EC50,[2],734 nM
"Cc1cccc(C)c1-c1cc(Cl)cc2c1OC(CN)C2 (racemic) [Example 260, (±)-{[5-chloro-7-(2,6-dimethylphenyl)-2,3-dihydro-1-benzofuran-2-yl]methyl}amine]",Ki,[1],0.13 nM
same,Emax,[2],90%
same,EC50,[2],22 nM
"NCC1Cc2cc(Cl)cc(-c3c(Cl)cccc3Cl)c2O1 (racemic) [Example 263, (±)-{[5-chloro-7-(2,6-dichlorophenyl)-2,3-dihydro-1-benzofuran-2-yl]methyl}amine]",Ki,[1],1.8 nM
same,Emax,[2],100%
same,EC50,[2],0.8 nM
"NCC1Cc2cc(Cl)cc(-c3cccnc3)c2O1 (racemic) [Example 266, (±)-{[(5-chloro-7-pyridin-3-yl-2,3-dihydro-1-benzofuran-2-yl)methyl]amine]",Ki,[1],4.9 nM
same,Emax,[2],90%
same,EC50,[2],3 nM
"Cc1cc2c(c(-c3ccccc3)c1)OC(CN)C2 (racemic) [Example 281, (±)-{[(5-methyl-7-phenyl-2,3-dihydro-1-benzofuran-2-yl)methyl]amine]",Ki,[1],3.8 nM
same,Emax,[2],90%
same,EC50,[2],35 nM
"Cc1cc2c(c(-c3ccccc3C)c1)OC(CN)C2 (racemic) [Example 282, (±)-{[7-(2-methylphenyl)-5-methyl-2,3-dihydro-1-benzofuran-2-yl]methyl}amine]",Ki,[1],1.7 nM
same,Emax,[2],90%
same,EC50,[2],43 nM
"Cc1cc2c(c(-c3ccccc3F)c1)OC(CN)C2 (racemic) [Example 283, (±)-{[7-(2-fluorophenyl)-5-methyl-2,3-dihydro-1-benzofuran-2-yl]methyl}amine]",Ki,[1],1.2 nM
same,Emax,[2],100%
same,EC50,[2],6 nM
